Literature values in patent US8309607B2, “Rapid release irbesartan-containing pharmaceutical composition” (ratiopharm GmbH, priority 2006, dated 2012).

Settings: in vivo

## CCCCC1=NC2(CCCC2)C(=O)N1Cc1ccc(-c2ccccc2-c2nnn[nH]2)cc1 [Irbesartan, 2-n-butyl-4-spirocyclopentane-1-[(2′-(tetrazol-5-yl)biphenyl-4-yl)methyl]-2-imidazolin-5-one]
  oral bioavailability: acceptable oral bioavailability
